For data set [1], the system named is HAdV5-GFP. In words: Plaque assay (inhibition of HAdV plaque formation). Format: cell-based, HAdV-5. The conditions noted are these: for inhibition at 10 µM: read-out: Plaque Assay (%) Inhibition (10 μM); for Selectivity index (SI): ratio of CC50 to IC50 in plaque assay. An outline of the steps:
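Cells at 80-90% confluency infected with HAdV5-GFP at 0.06 vp/cell, rocked 2 h at 37° C, then washed with PBS. Compounds tested at 10 μM and in dose-response from 10 to 0.3 μM, included in the post-infection mixture.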

The subject of data set [2] is HAdV5-GFP. In words: Entry assay (HAdV5-mediated GFP expression). It is filed as cell-based, HAdV-5. The conditions noted are these: for inhibition at 50 µM: A549, 48 h, read-out: (%) Inhibition Entry Assay (50 μM). The protocol:
Entry Assay. The anti-HAdV activity was measured in an entry assay using human A549 epithelial cells (3×10^5 cells/well in coming black wall, clear bottom 96-well plates) infected with HAdV5-GFP (2000 vp/cell) in the presence 50 μM of the candidates and in a dose-response assay. A standard infection curve was generated in parallel by infecting cells in the absence of compounds using serial 2-fold dilutions of virus. All reactions were done in triplicate. Cells, virus, and drugs were incubated for 48 h at 37° C. and 5% CO2.

The subject of data set [3] is HAdV5-GFP. As to the kind of experiment: Time of addition assay. The conditions noted are these: FIG. 2; 10 μM. It is filed as cell-based, HAdV-5. The protocol:
Time of Addition Curve Study. […] Parallel samples of HAdV-5 were incubated with or without the selected derivatives on ice for 1 h. […] The derivatives were added at the indicated time points before or during this incubation. After a total of 2 h at 37° C., cells were incubated for an additional 48 h at 37° C. and 5% CO2 before being analyzed for GFP expression using the Typhoon 9410 imager (GE Healthcare Life Sciences) as above.
Time of Addition Assay. […] Parallel samples of HAdV-5 were incubated with or without the selected derivatives on ice for 1 h. […] The derivatives were added at the indicated time points before or during this incubation. After a total of 2 h at 37° C., cells were incubated for an additional 48 h at 37° C. and 5% CO2 before being analyzed for GFP expression using the Typhoon 9410 imager (GE Healthcare Life Sciences) as above.
Time of Addition Assay. […] Parallel samples of HAdV-5 were incubated with or without the selected compounds on ice for 1 h. […] Compounds 153 and 161 were added at the indicated time points before or during this incubation. After a total of 2 h at 37° C., cells were incubated for an additional 48 h at 37° C. and 5% CO2 before being analyzed for GFP expression using the Typhoon 9410 imager (GE Healthcare Life Sciences) as above.

In data set [4] the test system is wild-type HAdV5. In words: Nuclear-associated HAdV genomes (real-time PCR). It is filed as cell-based, HAdV-5. On the procedure: (§1) Nuclear-Associated HAdV Genomes. The nuclear delivery of HAdV genomes was assessed by real-time PCR following nuclear isolation from infected cells. […] Forty-five minutes after infection, A549 cells were trypsinized and collected and then washed twice with PBS. Then, cytoplasmic and nuclear fractions were separated using a hypotonic buffer solution and NP-40 detergent. The cell pellet was resuspended in 500 μL of 1×hypotonic buffer (20 mM Tris-HCl pH 7.4, 10 mM NaCl, 3 mM MgCl2) and incubated for 15 min at 4° C. Then, 25 μL of NP-40 was added and the samples were vortexed. The homogenates were centrifuged for 10 min at 835 g at 4° C. Following the removal of the cytoplasmic fraction (supernatant), HAdV DNA was isolated from the nuclear fraction (pellet) and from the cytoplasmic fraction using the QIAamp DNA Mini Kit (QIAGEN, Valencia, Calif.).
as §1, with “E.Z.N.A.® Tissue” for “QIAamp”, “DNA” for “DNA Mini”, “(Omega Bio-tek, Norcross, Ga.).” for “(QIAGEN, Valencia, Calif.).”

For data set [5], the system named is wild-type HAdV5. In words: HAdV DNA quantification by real-time PCR (DNA replication). The note with it: 24 h. Format: cell-based, HAdV-5. The protocol: DNA Quantification by Real-Time PCR. […] Infected cells were incubated 24 h at 37° C. in 500 μL of complete DMEM containing 25 μM of either compounds or the same volume of DMSO (positive control). All samples were done in duplicate. After 24 h of incubation at 37° C., DNA was purified from the cell lysate with the QIAamp DNA Mini Kit (QIAGEN, Valencia, Calif.) following the manufacturer's instructions. TaqMan primers and probes for a common region of the HAdV5 were designed with the GenScript Real-Time PCR (TaqMan) Primer Design software (GenScript). […] Real-time PCR mixtures consisted of 9.5 μL of the purified DNA, AQ1 and AQ2 at a concentration of 200 nM each and Probe at a concentration of 50 nM in a total volume of 25 μL. The PCR cycling protocol was 95° C. for 3 min followed by 40 cycles of 95° C. for 10 s and 60° C. for 30 s. Human glyceraldehyde-3-phosphate dehydrogenase (GAPDH) gene was used as internal control. Oligonucleotides sequences for GAPDH and conditions were those previously reported by Henke-Gendo et al. (2012).
For quantification, gene fragments from hexon, and GAPDH were cloned into the pGEM-T Easy vector (Promega) and known concentrations of template were used to generate a standard curve in parallel for each experiment. All assays were performed in thermal cycler LightCycler® 96 System (Roche).
(§2) HAdV DNA Quantification by Real-Time PCR. […] All samples were done in duplicate. After 24 h of incubation at 37° C., DNA was purified from the cell lysate with the E.Z.N.A.® Tissue DNA Kit (Omega Bio-tek, Norcross, Ga.) following the manufacturer's instructions. TaqMan primers and probes for a common region of the HAdV5 were designed with the GenScript Real-Time PCR (TaqMan) Primer Design software (GenScript). […] Real-time PCR mixtures consisted of 9.5 μL of the purified DNA, AQ1 and AQ2 at a concentration of 200 nM each and Probe at a concentration of 50 nM in a total volume of 25 μL. The PCR cycling protocol was 95° C. for 3 min followed by 40 cycles of 95° C. for 10 s and 60° C. for 30 s. Human glyceraldehyde-3-phosphate dehydrogenase (GAPDH) gene was used as internal control. Oligonucleotides sequences for GAPDH and conditions were those previously reported by Henke-Gendo et al. (2012).
as §2, with “DNA” for “HAdV DNA”
On the technique in general: Real-time PCR tracks product formation cycle by cycle.

Data set [6] in a line: Cytotoxicity assay (AlamarBlue). The conditions noted are these: human, A549 cells. The protocol: (§3) Cytotoxicity Assay. The cytotoxicity of the compounds was analyzed by commercial kit AlamarBlue® (Invitrogen, Ref. DAL1025). A549 cells at a density of 5×10^3 cells per well in 96-well plates were seeded. […] Cells were then incubated at 37° C. for 48 h following the kit protocol. The cytotoxic concentration 50 (CC50) value was obtained using the statistical package GraphPad Prism. This assay was performed in duplicate.
(Resazurin is reduced to fluorescent resorufin, in cell work by metabolically active cells.)

A further data set deals with A549 cells. In words: Cytotoxicity assay (AlamarBlue). The conditions noted are these: read-out: CC50 (μM), cytotoxic concentration 50%; A549 cell line, 48 h. The protocol:
as §3

Where [7] appears, read: read-out: Plaque Assay IC50 (μM), HAdV5-GFP, low MOI, 293β5 cell line.
Setting [8] is: HAdV5-GFP, low MOI, 293β5 cell line, read-out: Plaque Assay IC50.

The values that follow come from US20230140290A1, “SALICYLAMIDE DERIVATIVES AND RELATED METHODS OF MAKING” (THE BOARD OF REGENTS OF THE UNIVERSITY OF TEXAS SY, priority 2020, published 2023).

The structures appear in SMILES notation. Where “and” joins values, the source holds several entries; their conditions need not be identical. Identical values can stand only once.

On to `O=C(Nc1ccc(C(F)(F)F)cc1Cl)c1cc(Cl)ccc1O` [Compound 14, 5-Chloro-N-(2-chloro-4-(trifluoromethyl)phenyl)-2-hydroxybenzamide], for which, in the data set with HAdV5-GFP [1], the inhibition (in general, how much of the control response was suppressed) at 10 µM came out at 100%. Further, the half-maximal inhibitory concentration (IC50) (as a rule, the concentration needed to halve the response being measured) was 0.08 µM in the data set with HAdV5-GFP [1] (setting [7]) and 1.67 ± 0.25 µM with HAdV5-GFP [2] (A549, read-out: IC50 Entry Assay (μM), HAdV5-GFP, high MOI, A549 cell line). The inhibition at 50 µM with HAdV5-GFP [2] was found to be 100%. Moreover, the “loss of inhibition when added between 5 and 10 min p.i.” value in the data set on HAdV5-GFP [3] came out at 20%. Further, the “amount of nuclear-associated HAdV genomes versus DMSO” value in the data set with wild-type HAdV5 [4] (FIG. 3, 45 min post infection, concentrations by CC50 (2-50 μM)) is listed as “partially inhibited”. Further, the “inhibition of HAdV-5 DNA replication (qPCR)” value in the data set with wild-type HAdV5 [5] (FIG. 4, concentrations by CC50 (2-50 μM)) is given as “significant (p≤0.0001) inhibitory activity”.
`C[C@@H](NC(=O)c1cc(Cl)ccc1O)c1ccc(F)cc1` [Compound 49, (R)-5-Chloro-N-(1-(4-fluorophenyl)ethyl)-2-hydroxybenzamide]: in the data set on HAdV5-GFP [1], the “Selectivity index (SI)” value was 57.8 and 66.2; the inhibition at 10 µM came out at 100%. Also, the 50% inhibitory concentration (IC50) with HAdV5-GFP [1] (setting [7]) amounted to 3.02 µM. In data set [6], the CC50 at 48 h is more than 200 µM.
Turning to `CC(C)(NC(=O)c1cc(Cl)ccc1O)c1ccc(F)cc1` [Compound 51, 5-Chloro-N-(2-(4-fluorophenyl)propan-2-yl)-2-hydroxybenzamide], in the data set on HAdV5-GFP [1], the “Selectivity index (SI)” value was 39.1 and 57.8; the inhibition at 10 µM worked out at 100%. For the same compound, the IC50 in the data set on HAdV5-GFP [1] (setting [7]) is 3.46 µM. Further, in data set [6], the CC50 at 48 h is more than 200 µM.
As for `O=C(Nc1ccc(NCc2ccncc2)cc1Cl)c1cc(Cl)ccc1O` [Compound 108, 5-Chloro-N-(2-chloro-4-((pyridin-4-ylmethyl)amino)phenyl)-2-hydroxybenzamide], in the data set on HAdV5-GFP [1] (setting [8]), the half-maximal inhibitory concentration (IC50) is 1.66 to 4.78 µM. In the data set with HAdV5-GFP [1], the “Selectivity index (SI)” value was 24.6 and the inhibition at 10 µM was 100%. The compound also displayed an IC50 in the data set with HAdV5-GFP [1] ({}) of 2.66 ± 0.17 µM. The compound also came in with a CC50 at 48 h in data set [6] of 65.3 to 126 µM. In addition, the CC50 with A549 cells came out at 65.3 ± 5.7 µM.
Turning to `O=C(Nc1ccc(NCc2cccnc2Cl)cc1Cl)c1cc(Cl)ccc1O` [Compound 109, 5-Chloro-N-(2-chloro-4-(((2-chloropyridin-3-yl)methyl)amino)phenyl)-2-hydroxybenzamide], in the data set with HAdV5-GFP [1], the “Selectivity index (SI)” value is given as 21.0 and the inhibition at 10 µM is 100%. The CC50 at 48 h in data set [6] lay within 65.3 to 126 µM. Also, the CC50 in the data set with A549 cells was determined as 100 ± 29.8 µM.
In the case of `O=C(Nc1ccc(NCc2cnccc2Cl)cc1Cl)c1cc(Cl)ccc1O` [Compound 110, 5-Chloro-N-(2-chloro-4-(((4-chloropyridin-3-yl)methyl)amino)phenyl)-2-hydroxybenzamide], the IC50 in the data set on HAdV5-GFP [1] (setting [8]) was in the range of 1.66 to 4.78 µM. Further, in the data set on HAdV5-GFP [1], the “Selectivity index (SI)” value came to 75.7 and the inhibition at 10 µM amounted to 100%. The IC50 in the data set on HAdV5-GFP [1] ({}) amounted to 1.66 ± 0.42 µM. The compound also returned a CC50 at 48 h in data set [6] of 65.3 to 126 µM. Also, the CC50 in the data set on A549 cells came out at 126 ± 25.1 µM.
On to `O=C(Nc1ccc(NCc2cccc(Br)n2)cc1Cl)c1cc(Cl)ccc1O` [Compound 111, N-(4-(((6-Bromopyridin-2-yl)methyl)amino)-2-chlorophenyl)-5-chloro-2-hydroxybenzamide], for which the half-maximal inhibitory concentration (IC50) in the data set with HAdV5-GFP [1] (setting [8]) was 1.66 to 4.78 µM. Besides, in the data set with HAdV5-GFP [1], the “Selectivity index (SI)” value is given as 40.8 and the inhibition at 10 µM came out at 100%. The IC50 with HAdV5-GFP [1] ({}) came out at 2.26 ± 0.05 µM. In data set [6], the CC50 at 48 h lay within 65.3 to 126 µM. The CC50 in the data set with A549 cells came out at 92.3 ± 9.5 µM.
Turning to `CC(CCO)Nc1ccc(NC(=O)c2cc(Cl)ccc2O)c(Cl)c1` (centres unmarked) [Compound 119, 5-Chloro-N-(2-chloro-4-((4-hydroxybutan-2-yl)amino)phenyl)-2-hydroxybenzamide], in the data set on HAdV5-GFP [1], the “Selectivity index (SI)” value was 166.7 and the inhibition at 10 µM was determined as 96.9 ± 2.4%. The IC50 in the data set with HAdV5-GFP [1] (setting [7]) is 1.2 µM. Further, the CC50 in the data set with A549 cells was found to be 200 µM. Moreover, the inhibition at 50 µM with HAdV5-GFP [2] is 88.6%. Also, the “amount of nuclear-associated HAdV genomes versus DMSO” value with wild-type HAdV5 [4] (FIG. 5A, 45 min post-infection, 10-fold plaque IC50) is on record as “no significant differences”. The “inhibition of HAdV-5 DNA replication (qPCR)” value with wild-type HAdV5 [5] (FIG. 6A, 10-fold plaque IC50) was “low inhibition”.
`Nc1ccn(C[C@@H](CO)OCP(=O)(O)O)c(=O)n1` [cidofovir, reference compound]: in the data set with HAdV5-GFP [1], the “Selectivity index (SI)” value is reported as 7.5. Moreover, the IC50 in the data set with HAdV5-GFP [1] (setting [7]) came out at 24.1 ± 5.9 µM. In data set [6], this compound returned a CC50 at 48 h of 50.1 ± 9.8 µM.
